Laboratory results: paper PMC3237348, “Chemical Genomics Profiling of Environmental Chemical Modulation of Human Nuclear Receptors” (Environmental Health Perspectives, 2011)
Blank lines part the entries; values can stand above or below the compound they belong to.

Legend:
[1] = target: T1, PPARδ (Homo sapiens, UniProt Q03181); experiment: GAL-LBD beta-lactamase reporter qHTS, HEK […], […] nm ratio; assay type: cell-based
T1 construct: gene PPARD; GeneBLAzer bla HEK 293T reporter line (Invitrogen)
T1 sequence (Q03181 139-441 limits assumed): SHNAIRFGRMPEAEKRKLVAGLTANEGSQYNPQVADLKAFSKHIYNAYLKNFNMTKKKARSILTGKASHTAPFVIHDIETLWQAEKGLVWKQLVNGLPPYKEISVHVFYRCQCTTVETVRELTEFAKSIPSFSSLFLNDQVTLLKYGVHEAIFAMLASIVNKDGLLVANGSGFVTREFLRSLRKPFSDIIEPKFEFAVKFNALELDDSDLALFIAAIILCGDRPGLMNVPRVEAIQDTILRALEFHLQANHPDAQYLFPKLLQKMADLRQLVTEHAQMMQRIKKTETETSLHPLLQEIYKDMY

[2] = target: T1, PPARδ; experiment: cell-based; design: species or system HEK 293T; GeneBLAzer GAL4-LBD beta-lactamase reporter, agonist mode, 460/530 nm FRET ratio; settings: agonist mode; read-out: Control Titration EC50/IC50 (µM), agonist mode
Text: (§1) β-Lactamase reporter gene assay and qHTS. […] All cell culture reagents were obtained from Invitrogen.

[3] = target: T2, GR (Homo sapiens, UniProt P04150); experiment: GAL-LBD beta-lactamase reporter qHTS, HEK […], […] nm ratio; assay type: cell-based
T2 construct: gene NR3C1; GeneBLAzer bla HEK 293T reporter line (Invitrogen)
T2 sequence (P04150 521-777 limits assumed): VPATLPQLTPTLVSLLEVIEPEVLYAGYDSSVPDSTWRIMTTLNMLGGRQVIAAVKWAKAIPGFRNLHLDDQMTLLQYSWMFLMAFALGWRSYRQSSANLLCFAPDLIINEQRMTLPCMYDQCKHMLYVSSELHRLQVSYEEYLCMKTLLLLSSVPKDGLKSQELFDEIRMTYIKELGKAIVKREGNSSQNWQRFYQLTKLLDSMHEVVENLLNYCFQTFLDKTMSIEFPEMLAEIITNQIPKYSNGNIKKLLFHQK

[4] = target: T3, PPARγ (Homo sapiens, UniProt P37231); experiment: as above; assay type: cell-based
T3 construct: gene PPARG; GeneBLAzer bla HEK 293T reporter line (Invitrogen)
T3 sequence (P37231 238-505 limits assumed): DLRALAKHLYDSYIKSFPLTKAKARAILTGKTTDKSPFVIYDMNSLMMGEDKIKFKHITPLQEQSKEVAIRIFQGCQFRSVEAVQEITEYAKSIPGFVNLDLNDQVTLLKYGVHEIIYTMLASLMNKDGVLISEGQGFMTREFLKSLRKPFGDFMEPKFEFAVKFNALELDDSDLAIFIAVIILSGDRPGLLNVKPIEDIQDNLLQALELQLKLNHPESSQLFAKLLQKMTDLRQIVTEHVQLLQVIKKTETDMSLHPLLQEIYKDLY

[5] = target: T3, PPARγ; experiment: cell-based; design: species or system HEK 293T; GeneBLAzer GAL4-LBD beta-lactamase reporter, antagonist mode with added agonist, 460/530 nm FRET ratio; settings: with rosiglitazone 0.05 uM; antagonist mode, known agonist added; read-out: Control Titration EC50/IC50 (µM), antagonist mode
Text: as §1

[6] = target: T4, RXRα (Homo sapiens, UniProt P19793); experiment: GAL-LBD beta-lactamase reporter qHTS, HEK […], […] nm ratio; assay type: cell-based
T4 construct: gene RXRA; GeneBLAzer bla HEK 293T reporter line (Invitrogen)
T4 sequence (P19793 225-462 limits assumed): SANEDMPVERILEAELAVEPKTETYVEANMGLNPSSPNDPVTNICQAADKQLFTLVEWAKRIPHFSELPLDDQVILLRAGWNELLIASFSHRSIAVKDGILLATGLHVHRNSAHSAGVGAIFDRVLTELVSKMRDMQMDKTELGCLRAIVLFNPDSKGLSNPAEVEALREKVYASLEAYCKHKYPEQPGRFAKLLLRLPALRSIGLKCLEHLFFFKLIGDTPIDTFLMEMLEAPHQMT

[7] = target: T5, LXRβ (Homo sapiens, UniProt P55055); experiment: as above; assay type: cell-based; settings: agonist mode; […]-18 h at […] °C; unreliable
T5 construct: gene NR1H2; GeneBLAzer bla HEK 293T reporter line (Invitrogen)
T5 sequence (P55055 222-460 limits assumed): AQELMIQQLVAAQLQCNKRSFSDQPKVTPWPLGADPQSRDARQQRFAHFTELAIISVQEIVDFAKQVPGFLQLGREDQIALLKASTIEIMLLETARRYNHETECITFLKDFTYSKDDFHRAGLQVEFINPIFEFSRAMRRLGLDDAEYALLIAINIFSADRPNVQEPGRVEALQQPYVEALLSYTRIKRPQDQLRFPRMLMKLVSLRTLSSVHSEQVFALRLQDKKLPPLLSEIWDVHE

[8] = target: T6, ERα (Homo sapiens, UniProt P03372); experiment: as above; assay type: cell-based
T6 construct: gene ESR1; GeneBLAzer bla HEK 293T reporter line (Invitrogen)
T6 sequence (P03372 311-547 limits assumed): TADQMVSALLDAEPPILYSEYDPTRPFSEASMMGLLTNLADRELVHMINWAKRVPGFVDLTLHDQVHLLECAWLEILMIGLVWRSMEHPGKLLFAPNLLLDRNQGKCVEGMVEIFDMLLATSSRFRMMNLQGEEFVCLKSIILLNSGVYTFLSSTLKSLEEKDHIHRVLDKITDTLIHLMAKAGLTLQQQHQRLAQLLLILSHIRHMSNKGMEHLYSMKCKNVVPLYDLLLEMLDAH

[9] = target: T1, PPARδ; experiment: cell-based; design: species or system HEK 293T; GeneBLAzer GAL4-LBD beta-lactamase reporter, antagonist mode with added agonist, 460/530 nm FRET ratio; settings: with L165041 0.5 uM; antagonist mode, known agonist added; read-out: Control Titration EC50/IC50 (µM), antagonist mode
Text: as §1

[10] = target: T3, PPARγ; experiment: GAL-LBD beta-lactamase reporter qHTS, HEK […], […] nm ratio; assay type: cell-based; remark: listed apart in the source

EC50 [1]: 90 nM
EC50 [2]: 0.036 ± 0.006 µM
Structure (SMILES): CCCc1c(OCCCOc2ccc(OCC(=O)O)cc2)ccc(C(C)=O)c1O [l-165,041]

EC50 [3]: 110 nM
Structure (SMILES): C[C@]12C=CC(=O)C=C1CC[C@H]1[C@@H]3C[C@@H](O)[C@](O)(C(=O)CO)[C@@]3(C)C[C@H](O)[C@@]12F [Triamcinolone]

IC50 [4]: 12600 nM
IC50 [5]: 0.011 µM
Structure (SMILES): O=C(Nc1ccccc1)c1cc([N+](=O)[O-])ccc1Cl [GW9662]

EC50 [6]: 710 nM
Structure (SMILES): C/C(=C\c1ccc(C(=O)O)cc1)c1ccc2c(c1)C(C)(C)CCC2(C)C [TTNPB, (E)-4-[2-(5,6,7,8-tetrahydro-5,5,8,8-tetramethyl-2-naphthylenyl)-1-propenyl] benzoic acid]

EC50 [7]: 39810 nM
Structure (SMILES): CC(C)CCC[C@@H](C)[C@H]1CC[C@H]2[C@@H]3CC=C4C[C@@H](O)CC[C@]4(C)[C@H]3CC[C@]12C [Cholesterol]

EC50 [8]: 100 nM
Structure (SMILES): CCCc1c(-c2ccc(O)cc2)nn(-c2ccc(O)cc2)c1-c1ccc(O)cc1 [1,3,5-tris(4-Hydroxyphenyl)-4-propyl-1H-pyrazole]

Structure (SMILES): CCCCCCCCCCCCCCC(Br)C(=O)O (centres unmarked) [2-Bromohexadecanoic acid]
EC50 [1]: 28200 nM

IC50 [9]: 54 µM
Structure (SMILES): CC(C)c1ccc2c(c1)c(SC(C)(C)C)c(CC(C)(C)C(=O)O)n2Cc1ccc(Cl)cc1 [MK886]

EC50 [6]: 620 nM
Structure (SMILES): CC1(C)CCC(C)(C)c2cc(C(=O)Nc3ccc(C(=O)O)cc3)ccc21 [AM-580]

EC50 [7]: 250 nM
Structure (SMILES): O=S(=O)(c1ccccc1)N(CC(F)(F)F)c1ccc(C(O)(C(F)(F)F)C(F)(F)F)cc1 [TO-901317]

Structure (SMILES): CC(C)(c1ccc(OCC2CO2)cc1)c1ccc(OCC2CO2)cc1 (centres unmarked) [BADGE]
IC50 ([4]; antagonist mode, nonsaturating agonist pre-added, […]-18 h at […] °C): 50100 nM

EC50 [10]: 11200 nM
Structure (SMILES): CC(C)C[C@H](NC(=O)OCC1c2ccccc2-c2ccccc21)C(=O)O [Fmoc-l-leucine]
